Tests used:
Assay type in all cases: cell-based, mouse
ES cells = test: Examination of cell survival (MTT assay); settings: for relative cell survival rate: control = 100
Description: The following steps were conducted in order to culture ES cells: • (1) preparing a stem cell medium: DMEM+15% heat-inactivated FBS+NEAA (0.1 mM)+L-glutamine (2 mM)+β-mercaptoethanol (0.2 mM); • (2) preparing a BP-containing solution: dissolving BP into DMSO to form a BP-containing solution (100 mg/ml), and storing the solution at −20° C.; • (3) adding different amounts of the BP-containing solution in step (2) into the stem cell medium in step (1) to form different BP-containing mediums, wherein the amount of BP were about 5, 10, 20 or 40 μg per milliliter of the stem cell medium respectively (i.e. the experimental group mediums: BP5, BP10, BP20 and BP40); and • (4) using the BP-containing medium of in step (3) to culture a ES cell (retrieved from the embryos in the blastula stage of 129sv/J mice) at 37° C., 5% CO2 and 95% humidity on the feeder cells provided by Example 1.
In this example, 3-(4,5-dimethylthiazol-2-yl)-2,5-diphenyl tetrazolium bromide (MTT) was used to determine if the cell survival rate of stem cells will be influenced when BP was served as a substitute for LIF.
MTT is a water-soluble tetrazolium salt which can react in the mitochondrial respiratory chain in living cells, to metabolize and reduce the tetrazolium bromide shown in the structure of MTT and to form an water-insoluble purple crystal formazan under the reaction of succinate dehydrogenase (SDH) and cytochrome c (cyt c). The amount of the produced crystal is directly proportional to the number of living cells (because the SDH will disappear from dead cells and the MTT cannot be reduced). Furthermore, mitochondrium is an organelle in cells most sensitive to the environment, and thus, the MTT assay could serve as a marker of the survival rate of cells treated by a drug.
An experimental group medium (BP5, BP10, BP20 or BP40) and a control group medium (without BP) were added respectively into a 96-well micro-culture plate to culture ES cells with an initial density of 5×10^3 per well for 24 to 72 hours. Then, 10 μl of 0.5 mg/ml MTT (Sigma) was added into each well and the cells were incubated in an incubator at 37° C. and 5% CO2 for 2 to 4 hours. The medium was removed, and 100 μl of DMSO was added into each well and maintained at 37° C. for 10 minutes. The absorbances of the samples were measured at a wavelength of 570 nm to obtain the data of the experimental group (with BP) and control group (without BP). The absorbance of control group was served as a reference to calculate the relative cell survival rate of each experimental group.

Pou5fl-GFP MEF cells = test: Examination of iPS cell generation efficiency (GFP fluorescence)
Text: The MEF cells were isolated from Pou5fl-GFP transgenic mice (The Jackson lab). The pcDNA-Oct4, pcDNA-Sox2, pcDNA-c-Myc, and pcDNA-Klf4 plasmids were introduced once every two days (4 times total) into the Pou5fl-GFP MEF cells to generate iPS cells through co-transfection. The medium was changed to BP-containing medium 6 days post-transfection, and the medium was exchanged everyday. On day 9, the MEF cells were passaged onto feeder cells provided by Example 1 and the GFP-positive clones were observed. Finally, the GFP fluorescent signals of the iPS cells were detected by a fluorescent microscope. The fluorescent signal intensity is directly proportional to the cell generation efficiency.
This example includes two groups, BP (T+P) and BP (T), wherein BP (T+P) refers to the group cultured with the experimental group medium (BP10) post-transfection and after placing onto feeder cells, and BP (T) refers to the group cultured with the experimental group medium (BP10) post-transfection.

iPS cells = test: AP staining and immunofluorescence staining of the generated iPS cells; settings: experimental group (T+P), BP10 medium
Description: The AP activity of the obtained iPS cells was determined by AP staining. The expression levels of Nanog and SSEA1 as well as the embryoid body formation and differentiation were observed by immunofluorescence staining.

CCCC=C1OC(=O)c2ccccc21 [BP, n-butylidenephthalide]
relative cell survival rate (ES cells; BP5 medium (about 5 μg BP/ml), 24 hours): 95.212 | relative cell survival rate (ES cells; BP5 medium (about 5 μg BP/ml), 72 hours): 99.816 | relative cell survival rate (ES cells; BP10 medium (about 10 μg BP/ml), 24 hours): 98.092 | relative cell survival rate (ES cells; BP10 medium (about 10 μg BP/ml), 72 hours): 93.848 | relative cell survival rate (ES cells; BP20 medium (about 20 μg BP/ml), 24 hours): 95.076 | relative cell survival rate (ES cells; BP20 medium (about 20 μg BP/ml), 72 hours): 92.399 | relative cell survival rate (ES cells; BP40 medium (about 40 μg BP/ml), 24 hours): 97.550 | relative cell survival rate (ES cells; BP40 medium (about 40 μg BP/ml), 72 hours): 90.128 | survival rate of stem cells (ES cells; addition of BP into the ES cell medium, result in words): will not affect the survival rate of stem cells | GFP fluorescence intensity in the iPS cells formed (Pou5fl-GFP MEF cells; BP (T): BP10 medium post-transfection, Day 7): 20.5 | GFP fluorescence intensity in the iPS cells formed (Pou5fl-GFP MEF cells; BP (T): BP10 medium post-transfection, Day 14): 70.5 | GFP fluorescence intensity in the iPS cells formed (Pou5fl-GFP MEF cells; BP (T): BP10 medium post-transfection, Day 20): 65.5 | GFP fluorescence intensity in the iPS cells formed (Pou5fl-GFP MEF cells; BP (T+P): BP10 medium post-transfection and after placing onto feeder cells, Day 7): 27.5 | GFP fluorescence intensity in the iPS cells formed (Pou5fl-GFP MEF cells; BP (T+P): BP10 medium post-transfection and after placing onto feeder cells, Day 14): 82 | GFP fluorescence intensity in the iPS cells formed (Pou5fl-GFP MEF cells; BP (T+P): BP10 medium post-transfection and after placing onto feeder cells, Day 20): 92.5 | GFP fluorescent signals (iPS cell generation efficiency) (Pou5fl-GFP MEF cells; BP-containing iPS cell medium vs control group (without BP), result in words): higher GFP fluorescent signals | expression levels of AP, Nanog and SSEA1 in the obtained iPS cells (iPS cells): higher expression levels of AP, Nanog, and SSEA1
